Test system: Plasmodium berghei
Test: Luciferase/luciferin-expressing antifolate-resistant parasites were used to infect a culture of HepG2 cells that were pre-incubated with compounds. Infected hepatocytes emit light due to the luciferase reaction. Assay results are presented as the percent inhibition of light emission compared to control. […]
Format: functional
Details: sporozoite; for IC90: read-out: LUCIFERASE INFECTION ASSAY - IC90
[1] = read-out: LUCIFERASE INFECTION ASSAY - IC50

| SMILES | IC90 [µM] | also measured |
| --- | --- | --- |
| Cn1c(NCc2ccccc2)nc2cnc(-c3ccc4ccccc4c3)cc21 | 9.43 | IC50 (HEPG2TOX_HILL_SLOPE 9.86, HEPG2TOX_R_SQUARED 0.539, PBLUC_HILL_SLOPE 12.2, PBLUC_R_SQUARED 0.511, read-out: LUCIFERASE INFECTION ASSAY - IC50): 7.88 µM |
| COc1cc(C)ccc1Oc1ccc(NC(=O)NC2CCN3CCCCC23)cn1 (stereo not given) | > 10 | IC50 [1]: > 10 µM |
| Cn1ccnc1C(=O)c1cc(SCC(=O)N2CCN(S(=O)(=O)c3ccc4ccccc4c3)CC2)nc2ccccc12 | > 10 | IC50 [1]: > 10 µM |
| COc1ccc(CNc2ncnc3ccsc23)cc1 | > 10 | IC50 [1]: 8.88 µM |
| O=C(COc1ccccc1C(=O)Nc1ccccc1)NC(c1ccc(F)cc1)c1cccs1 (stereo not given) | > 10 | IC50 (FFLUC_HILL_SLOPE 12.2, FFLUC_R_SQUARED 0.17, PBLUC_HILL_SLOPE 2.56, PBLUC_R_SQUARED 0.393, read-out: LUCIFERASE INFECTION ASSAY - IC50): 7.16 µM |
| Cc1ccc(C)c(S(=O)(=O)N(CC(=O)N2CCN(C(=O)c3ccco3)CC2)c2cccc(C(F)(F)F)c2)c1 | 8.16 | IC50 (PBLUC_HILL_SLOPE 4.06, PBLUC_R_SQUARED 0.673, read-out: LUCIFERASE INFECTION ASSAY - IC50): 4.75 µM |
| FC(F)Oc1ccc(NC(=S)NCC23CC4CC(CC(C4)C2)C3)cc1 | 9.77 | IC50 (HEPG2TOX_HILL_SLOPE 8.2, HEPG2TOX_R_SQUARED 0.229, PBLUC_HILL_SLOPE 14.4, PBLUC_R_SQUARED 0.791, read-out: LUCIFERASE INFECTION ASSAY - IC50): 8.38 µM |
| CCOc1cccc(C(=O)Nc2c(C)cc(Br)cc2C)c1 | > 9.48 | IC50 [1]: > 9.48 µM |
| O=C(Nc1ccc(I)cc1)C1CCN(C(=O)c2ccncc2)CC1 | 2.8 | IC50 (HEPG2TOX_HILL_SLOPE 1.42, HEPG2TOX_R_SQUARED 0.857, PBLUC_HILL_SLOPE 1.13, PBLUC_R_SQUARED 0.975, read-out: LUCIFERASE INFECTION ASSAY - IC50): 0.403 µM |
| Cc1ccc(O)c(C(=O)NCCC(C)C)c1 | > 10 | IC50 (HEPG2TOX_HILL_SLOPE 0.253, HEPG2TOX_R_SQUARED 0.657, PBLUC_HILL_SLOPE 0.85, PBLUC_R_SQUARED 0.659, read-out: LUCIFERASE INFECTION ASSAY - IC50): 2.35 µM |
| O=C1/C(=C/Nc2cccc(O)c2)c2ccccc2C(=O)N1Cc1ccccc1 | 9.61 | IC50 (PBLUC_HILL_SLOPE 10.5, PBLUC_R_SQUARED 0.272, read-out: LUCIFERASE INFECTION ASSAY - IC50): 7.8 µM |
| CN(C)c1ccc(-c2cnc3cnc(-c4ccc(O)cc4)cn23)cc1 | 1.76 | IC50 (HEPG2TOX_HILL_SLOPE 0.921, HEPG2TOX_R_SQUARED 0.948, PBLUC_HILL_SLOPE 0.805, PBLUC_R_SQUARED 0.912, read-out: LUCIFERASE INFECTION ASSAY - IC50): 0.115 µM |
| Cc1cc(O)nc(N/N=C/c2c(C)nn(-c3ccccc3Cl)c2Cl)n1 | 2.19 | IC50 (PBLUC_HILL_SLOPE 2.61, PBLUC_R_SQUARED 0.512, read-out: LUCIFERASE INFECTION ASSAY - IC50): 0.943 µM |
| CCCn1c(N)c(C(=O)CN(Cc2ccco2)Cc2cccs2)c(=O)[nH]c1=O | > 10 | IC50 (PBLUC_HILL_SLOPE 2.23, PBLUC_R_SQUARED 0.528, read-out: LUCIFERASE INFECTION ASSAY - IC50): 5.46 µM |
| CC(C)N(C(C)C)S(=O)(=O)c1ccc(NNC(=O)Nc2ccccc2F)nc1 | > 10 | IC50 (PBLUC_HILL_SLOPE 3.78, PBLUC_R_SQUARED 0.132, read-out: LUCIFERASE INFECTION ASSAY - IC50): 6.19 µM |
| CCOc1ccc(-c2nc(CSC(C)C(=O)Nc3c(Cl)cccc3Cl)cs2)cc1 (stereo not given) | > 10 | IC50 [1]: > 10 µM |
| O=C(Nc1nnc(C(F)(F)F)[nH]1)c1cc(-c2ccc(Br)cc2)nc2ccccc12 | > 10 | IC50 (HEPG2TOX_HILL_SLOPE 7.84, HEPG2TOX_R_SQUARED 0.569, PBLUC_HILL_SLOPE 1.54, PBLUC_R_SQUARED 0.197, read-out: LUCIFERASE INFECTION ASSAY - IC50): 9.57 µM |
| Cc1ccc2c(Cl)cc(Cl)c(OCN3C(=O)c4ccccc4C3=O)c2n1 | 5.83 | IC50 (PBLUC_HILL_SLOPE 5.8, PBLUC_R_SQUARED 0.551, read-out: LUCIFERASE INFECTION ASSAY - IC50): 3.99 µM |
| CNC(=O)c1cccc(-c2ccc3ncc(-c4ccc(NC(C)=O)cc4)n3n2)c1 | 2.63 | IC50 (HEPG2TOX_HILL_SLOPE 1.21, HEPG2TOX_R_SQUARED 0.751, PBLUC_HILL_SLOPE 4.52, PBLUC_R_SQUARED 0.725, read-out: LUCIFERASE INFECTION ASSAY - IC50): 1.62 µM |
| Clc1cccc(-c2cc3c(Nc4ccc5c(c4)OCCO5)nccc3[nH]2)c1 | > 10 | IC50 (HEPG2TOX_HILL_SLOPE 12.1, HEPG2TOX_R_SQUARED 0.71, PBLUC_HILL_SLOPE 1.15, PBLUC_R_SQUARED 0.766, read-out: LUCIFERASE INFECTION ASSAY - IC50): 1.75 µM |

| SMILES | IC90 [µM] | also measured |
| --- | --- | --- |
| O=S(=O)(NCc1cc(Cl)cc(Cl)c1)c1cc(C(F)(F)F)cc(C(F)(F)F)c1 | > 7.3 | IC50 (PBLUC_HILL_SLOPE 3.39, PBLUC_R_SQUARED 0.218, read-out: LUCIFERASE INFECTION ASSAY - IC50): 6.75 µM |
| C#CC(CC)(CC)NC(=O)CSc1nc(C)nc2sc3c(c12)CCC3 | > 10 | IC50 [1]: > 10 µM |
| Cc1nn2c(nc(NCc3ccc(Cn4ccnc4)cc3)c3ccccc32)c1Cl | > 10 | IC50 (FFLUC_HILL_SLOPE 16.1, FFLUC_R_SQUARED 0.458, read-out: LUCIFERASE INFECTION ASSAY - IC50): > 10 µM |
| N#Cc1nn(-c2cccc(Cl)c2)c(=O)cc1Cl | 11.9 | IC50 (FFLUC_HILL_SLOPE 0.646, FFLUC_R_SQUARED 0.469, HEPG2TOX_HILL_SLOPE 5.31, HEPG2TOX_R_SQUARED 0.933, PBLUC_HILL_SLOPE 9.19, PBLUC_R_SQUARED 0.334, read-out: LUCIFERASE INFECTION ASSAY - IC50): 9.36 µM |
| Oc1cccc(-c2cnc3cnc(-c4cccnc4)cn23)c1 | > 11.4 | IC50 (PBLUC_HILL_SLOPE 14.9, PBLUC_R_SQUARED 0.072, read-out: LUCIFERASE INFECTION ASSAY - IC50): 10.8 µM |
| COc1cccc(CN(C)S(=O)(=O)NC2CCC(C)CC2)c1 (stereo not given) | > 10 | IC50 (HEPG2TOX_HILL_SLOPE 1.57, HEPG2TOX_R_SQUARED 0.723, PBLUC_HILL_SLOPE 2.26, PBLUC_R_SQUARED 0.44, read-out: LUCIFERASE INFECTION ASSAY - IC50): 7.19 µM |
| CC(=O)NC(C)CCc1ccc(C(=O)Cn2ncc(Cl)c(Cl)c2=O)cc1 (stereo not given) | 9.36 | IC50 (HEPG2TOX_HILL_SLOPE 9.09, HEPG2TOX_R_SQUARED 0.148, PBLUC_HILL_SLOPE 4.21, PBLUC_R_SQUARED 0.695, read-out: LUCIFERASE INFECTION ASSAY - IC50): 5.55 µM |
| CCOC(=O)c1c(C)[nH]c(C(=O)Nc2cccc(C)n2)c1C | > 10 | IC50 (PBLUC_HILL_SLOPE 0.344, PBLUC_R_SQUARED 0.589, read-out: LUCIFERASE INFECTION ASSAY - IC50): 0.0971 µM |
| Clc1ccc2c(c1)-c1nc(-c3ccncc3)ncc1CS2 | 5.94 | IC50 (HEPG2TOX_HILL_SLOPE 2.28, HEPG2TOX_R_SQUARED 0.969, PBLUC_HILL_SLOPE 3.97, PBLUC_R_SQUARED 0.207, read-out: LUCIFERASE INFECTION ASSAY - IC50): 3.41 µM |
| Cc1nnc(NC(=O)CN2C(=O)COc3ccc(Cl)cc32)s1 | > 9.74 | IC50 [1]: > 9.74 µM |
| CC1CCCC(N2CC(C(=O)Nc3nc(-c4ccccn4)cs3)CC2=O)C1C (stereo not given) | 3.66 | IC50 (HEPG2TOX_HILL_SLOPE 6.97, HEPG2TOX_R_SQUARED 0.551, PBLUC_HILL_SLOPE 16.8, PBLUC_R_SQUARED 0.476, read-out: LUCIFERASE INFECTION ASSAY - IC50): 3.21 µM |
| CN1C=C/C(=C/c2ccc3ccccc3[n+]2C)c2ccccc21 | 5.18 | IC50 [1]: 1.06 µM |
| CCc1nnc(S)n1/N=C/c1c(C)nn(-c2ccccc2)c1Cl | 0.704 | IC50 (HEPG2TOX_HILL_SLOPE 1.03, HEPG2TOX_R_SQUARED 0.933, PBLUC_HILL_SLOPE 1.45, PBLUC_R_SQUARED 0.745, read-out: LUCIFERASE INFECTION ASSAY - IC50): 0.155 µM |
| CCc1nnc(NC(=O)/C=C/c2cc(Cl)c(OC(C)C)c(OC)c2)s1 | > 10 | IC50 (HEPG2TOX_HILL_SLOPE 1.31, HEPG2TOX_R_SQUARED 0.955, PBLUC_HILL_SLOPE 2.51, PBLUC_R_SQUARED 0.0872, read-out: LUCIFERASE INFECTION ASSAY - IC50): 6.82 µM |
| O=C(CCN1C(=O)c2ccccc2C1=O)OCc1cc(=O)oc2cc(O)ccc12 | > 10 | IC50 [1]: > 10 µM |
| CN1/C(=C\C(=O)COC(=O)C2Cc3ccccc3CN2C(=O)c2ccccc2)C(C)(C)c2ccccc21 (stereo not given) | > 10 | IC50 (PBLUC_HILL_SLOPE 1.63, PBLUC_R_SQUARED 0.576, read-out: LUCIFERASE INFECTION ASSAY - IC50): 3.35 µM |
| O=C(Nc1ccccc1)N1CCc2sccc2C1c1ccc(C(F)(F)F)cc1 (stereo not given) | 5.93 | IC50 (PBLUC_HILL_SLOPE 6.19, PBLUC_R_SQUARED 0.577, read-out: LUCIFERASE INFECTION ASSAY - IC50): 4.16 µM |
| CN(C)CCNc1nc(Oc2cccc3ccccc23)c2sccc2n1 | > 9.05 | IC50 (PBLUC_HILL_SLOPE 11.6, PBLUC_R_SQUARED 0.0493, read-out: LUCIFERASE INFECTION ASSAY - IC50): 8.94 µM |
| COc1ccc(-c2cnn3ccc(Nc4ccc(OC)nc4)nc23)c(OC)c1 | 3.63 | IC50 (HEPG2TOX_HILL_SLOPE 6.09, HEPG2TOX_R_SQUARED 0.857, PBLUC_HILL_SLOPE 12.3, PBLUC_R_SQUARED 0.558, read-out: LUCIFERASE INFECTION ASSAY - IC50): 3.03 µM |
| COc1ccc(CC(=O)NCc2ccccc2Cl)cc1 | > 11.4 | IC50 (HEPG2TOX_HILL_SLOPE 3.79, HEPG2TOX_R_SQUARED 0.83, read-out: LUCIFERASE INFECTION ASSAY - IC50): > 11.4 µM |
